Series [1] can be described thus: Pharmacokinetics of compound (I), alone versus in combination with (III) and ritonavir, healthy subjects. The class given is in vivo, human. Conditions: geometric mean; for Cmax / AUC(0-t): human, in vivo; for AUC(0-t): read-out: AUC24 h. As for the experimental part:
The pharmacokinetic variables for the compound of formula (I) and (III) administered alone where compared when they were co-administered in a combination of (I), (II) and (III). All tables indicate Geometric mean (CV %) pharmacokinetic parameters and might be the result of multiple studies. The compounds are indicated by their respective numbers (I, II or III) in the tables below. A comparison is made between administration of compound of Formula (I) 150 mg alone versus 300 mg compound of formula (III) in combination with 50 mg of compound of Formula (I) and 20 mg of Ritonavir (compound of Formula (II) according to the following protocol. • 150 mg qd (I) given for 14 days to 10 healthy subjects • Washout of 14 days • 50 mg qd (I), 300 mg qd (III), 20 mg qd ritonavir (II) given for 14 days to the same 10 healthy volunteers.

The nature of series [2]: Pharmacokinetics of compound (III), alone versus in combination with (I) and ritonavir. The class given is in vivo, human. Conditions: geometric mean (CV%); for Cmax / AUC(0-t): human, in vivo; for AUC(0-t): read-out: AUC24 h. How it is done:
The pharmacokinetic variables for the compound of formula (I) and (III) administered alone where compared when they were co-administered in a combination of (I), (II) and (III). All tables indicate Geometric mean (CV %) pharmacokinetic parameters and might be the result of multiple studies. The compounds are indicated by their respective numbers (I, II or III) in the tables below. A comparison is made between an administration of compound of Formula (III) 1000 mg alone, versus 300 mg compound of formula (III) in combination with 50 mg of compound of Formula (I) and 20 mg of Ritonavir (compound of Formula (II). The results are indicated in table 2 below.

Setting [3] is: 50 mg (I) + 300 mg (III) + 20 mg RTV qd for 14 days, same 10 healthy volunteers.
[4] abbreviates: (I) alone, 150 mg qd for 14 days, 10 healthy subjects.
Where [5] appears, read: 300 mg (III) + 50 mg (I) + 20 mg (II) qd.

As usually defined, the Cmax is the highest concentration seen after dosing.

The structures appear in SMILES notation.

In the case of `COc1ccc2c(O[C@@H]3C[C@H]4C(=O)N[C@]5(C(=O)NS(=O)(=O)C6CC6)C[C@H]5/C=C\CCCCN(C)C(=O)[C@@H]4C3)cc(-c3nc(C(C)C)cs3)nc2c1C` [I, (1R,4R,6S,15R,17R)-cis-N-[17-[2-(4-isopropylthiazole-2-yl)-7-methoxy-8-methylquinolin-4-yloxy]-13-methyl-2,14-dioxo-3,13-diazatricyclo[13.3.0.0^4,6]octadec-7-ene-4-carbonyl]-(cyclopropyl)sulfonamide], in series [1] (setting [3]), the Cmin turned out to be 375 ng/mL, the Cmax came out at 1460 ng/mL and the AUC(0-t) came to 20000 ng·h/mL. Besides, in series [1] (setting [4]), the Cmin was 1405 ng/mL, the maximum concentration (Cmax) worked out at 4750 ng/mL and the AUC(0-t) was 71200 ng·h/mL.
Consider `COc1ccc2c(c1)C=C1Cn3c-2c(C2CCCCC2)c2ccc(cc23)C(=O)NS(=O)(=O)N(C)CCOCCN(C)C1=O` [III], for which, in series [2] (setting [5]), the Cmin is 0.21 (86%) μg/ml, the Cmax was 6570 ng/mL and the AUC(0-t) stood at 52200 ng·h/mL. In series [2] ((III) alone, 1000 mg bid), the Cmin is recorded as 0.16 (42%) μg/ml, the highest concentration (Cmax) turned out to be 5220 ng/mL and the AUC(0-t) was found to be 40100 ng·h/mL.

These data come from patent publication US20150209366A1, “COMBINATION OF A MACROCYCLIC PROTEASE INHIBITOR OF HCV, A NON-NUCLEOSIDE HCV INHIBITOR AND RITONAVIR” (Janssen Pharmaceuticals, Inc., priority 2012, published 2015).
